From article PMC10683025, “Discovery of a Hydroxylamine-Based Brain-Penetrant EGFR Inhibitor for Metastatic Non-Small-Cell Lung Cancer” (Journal of Medicinal Chemistry, 2023)
Like-named read-outs stand apart in the source and are kept apart here.

How the values were obtained:
TA1535 = assay: Background bacterial cytotoxicity assay; set-up: species or system Salmonella; key to Flag: A cytotoxicity value of less than 60% is flagged and the compound is considered as toxic (denoted as Cytox.); A hyphen (-) denotes no cytotoxicity at the respective concentration
Procedure: (§1) Compounds were assessed for mutagenicity at the Eurofins Panlabs in 384-well plates using four Salmonella strains: TA98, to probe for frameshift mutation (with quercetin as control), TA100 and TA1535, to probe for base pair insertions/deletions (with streptozotocin as control), and TA1537, to probe for frameshift mutations (with aminacridine as control) as previously described.[78] Each compound was incubated at 37 °C for 96 h at four different concentrations (5, 10, 50, and 100 μM), with each concentration tested using 48 replicates, both with and without rat liver S9 metabolic activation. A concurrent bacterial cytotoxicity assay was run at 0.6, 1.2, 2.5, 5, 10, 25, 50, and 100 μM to rule out false negatives. Bacterial cytotoxicity was expressed as percent of control growth (OD650). Compounds with growth of less than 60% control were flagged and considered bacterial cytotoxic. […] Significances of the positive counts between the treatment and control were determined using a one-tailed Fisher’s exact test.

TA1537 [1] = assay: Background bacterial cytotoxicity assay; set-up: species or system Salmonella; key to Flag: A cytotoxicity value of less than 60% is flagged and the compound is considered as toxic (denoted as Cytox.); A hyphen (-) denotes no cytotoxicity at the respective concentration
Procedure: as §1

BMPR2 = target: T1, BMPR2 (Homo sapiens, UniProt Q13873); assay: KINOMEScan; format: binding; settings: BMPR2, 1 µM; read-out: Percent Control
T1 construct: purchased Eurofins DiscoverX (KINOMEscan)
Excerpt: (§2) Percent control was mapped onto the kinome tree using TREEspot.

TA1537 [2] = tested on: TA1537; set-up: species or system Salmonella;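 for Count (# of wells): Revertant-positive wells among 48 replicate wells per concentration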
Procedure: as §1, with “Each compound was incubated at 37 °C for 96 h at four different concentrations (5, 10, 50, and 100 μM), with each concentration tested using 48 replicates, both with and without rat liver S9 metabolic activation.” left out

TA98 = tested on: TA98; set-up: species or system Salmonella;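 for Count (# of wells): Revertant-positive wells among 48 replicate wells per concentration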
Procedure: as §1, with “Each compound was incubated at 37 °C for 96 h at four different concentrations (5, 10, 50, and 100 μM), with each concentration tested using 48 replicates, both with and without rat liver S9 metabolic activation.” left out

TA100 = tested on: TA100; set-up: species or system Salmonella;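 for Count (# of wells): Revertant-positive wells among 48 replicate wells per concentration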
Procedure: as §1, with “Each compound was incubated at 37 °C for 96 h at four different concentrations (5, 10, 50, and 100 μM), with each concentration tested using 48 replicates, both with and without rat liver S9 metabolic activation.” left out

BMX = target: T2, BMX (Homo sapiens, UniProt P51813); assay: KINOMEScan; format: binding; settings: read-out: Percent Control
T2 construct: purchased Eurofins DiscoverX (KINOMEscan)
Excerpt: as §2

BRAF(V600E) = target: T3, BRAF(V600E) (Homo sapiens, UniProt P15056, V600E); assay: KINOMEScan; format: binding; settings: read-out: Percent Control
T3 construct: purchased Eurofins DiscoverX (KINOMEscan)
Excerpt: as §2

WNK2 = target: T4, WNK2 (Homo sapiens, UniProt Q9Y3S1); assay: KINOMEScan; format: binding; settings: WNK2, 1 µM; read-out: Percent Control
T4 construct: purchased Eurofins DiscoverX
Excerpt: as §2

ACVRL1 = target: T5, ACVRL1 (Homo sapiens, UniProt P37023); assay: KINOMEScan; format: binding; settings: ACVRL1, 1 µM; read-out: Percent Control
T5 construct: purchased Eurofins DiscoverX (KINOMEscan)
Excerpt: as §2

ACVR1 = target: T6, ACVR1 (Homo sapiens, UniProt Q04771); assay: KINOMEScan; format: binding; settings: ACVR1, 1 µM; read-out: Percent Control
T6 construct: purchased Eurofins DiscoverX
Excerpt: as §2

ZAP70 = target: T7, ZAP70 (Homo sapiens, UniProt P43403); assay: KINOMEScan; format: binding; settings: ZAP70, 1 µM; read-out: Percent Control
T7 construct: purchased Eurofins DiscoverX (KINOMEScan service)
T7 sequence (P43403 whole entry): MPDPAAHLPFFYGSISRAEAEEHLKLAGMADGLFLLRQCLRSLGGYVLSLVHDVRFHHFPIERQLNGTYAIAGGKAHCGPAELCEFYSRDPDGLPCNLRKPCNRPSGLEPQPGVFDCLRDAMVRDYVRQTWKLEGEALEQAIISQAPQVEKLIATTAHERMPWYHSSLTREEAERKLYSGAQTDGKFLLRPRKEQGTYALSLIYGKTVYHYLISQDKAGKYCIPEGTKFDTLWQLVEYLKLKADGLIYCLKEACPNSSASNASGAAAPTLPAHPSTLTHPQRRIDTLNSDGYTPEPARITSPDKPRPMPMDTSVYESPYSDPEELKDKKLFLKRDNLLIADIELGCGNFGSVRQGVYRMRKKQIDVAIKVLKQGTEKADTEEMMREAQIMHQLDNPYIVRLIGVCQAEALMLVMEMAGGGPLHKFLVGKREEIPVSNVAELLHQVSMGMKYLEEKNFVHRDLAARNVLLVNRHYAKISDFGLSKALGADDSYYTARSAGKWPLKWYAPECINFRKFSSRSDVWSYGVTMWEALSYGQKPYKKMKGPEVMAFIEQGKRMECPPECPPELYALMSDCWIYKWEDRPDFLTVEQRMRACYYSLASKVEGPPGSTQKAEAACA
Excerpt: as §2

T3 sequence (P15056 whole entry V600E): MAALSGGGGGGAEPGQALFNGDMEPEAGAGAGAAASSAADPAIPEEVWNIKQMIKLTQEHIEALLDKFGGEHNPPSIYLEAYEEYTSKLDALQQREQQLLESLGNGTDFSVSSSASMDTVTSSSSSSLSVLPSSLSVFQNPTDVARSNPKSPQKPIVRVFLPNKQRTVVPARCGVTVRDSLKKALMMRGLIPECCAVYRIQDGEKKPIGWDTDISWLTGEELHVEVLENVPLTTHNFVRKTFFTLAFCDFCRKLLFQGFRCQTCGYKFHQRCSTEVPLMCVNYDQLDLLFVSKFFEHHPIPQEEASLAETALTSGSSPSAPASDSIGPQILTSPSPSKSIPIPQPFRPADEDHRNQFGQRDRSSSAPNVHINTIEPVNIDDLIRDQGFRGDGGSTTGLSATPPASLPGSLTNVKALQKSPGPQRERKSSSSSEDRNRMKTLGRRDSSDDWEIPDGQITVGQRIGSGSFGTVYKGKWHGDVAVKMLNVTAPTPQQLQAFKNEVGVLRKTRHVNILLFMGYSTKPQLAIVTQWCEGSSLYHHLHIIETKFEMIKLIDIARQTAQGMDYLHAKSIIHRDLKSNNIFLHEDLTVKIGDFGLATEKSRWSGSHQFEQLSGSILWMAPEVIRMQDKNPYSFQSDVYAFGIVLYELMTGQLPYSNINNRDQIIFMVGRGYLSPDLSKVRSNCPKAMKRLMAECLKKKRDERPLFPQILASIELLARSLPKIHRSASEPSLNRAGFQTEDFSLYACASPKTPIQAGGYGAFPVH
T1 sequence (Q13873 27-1038): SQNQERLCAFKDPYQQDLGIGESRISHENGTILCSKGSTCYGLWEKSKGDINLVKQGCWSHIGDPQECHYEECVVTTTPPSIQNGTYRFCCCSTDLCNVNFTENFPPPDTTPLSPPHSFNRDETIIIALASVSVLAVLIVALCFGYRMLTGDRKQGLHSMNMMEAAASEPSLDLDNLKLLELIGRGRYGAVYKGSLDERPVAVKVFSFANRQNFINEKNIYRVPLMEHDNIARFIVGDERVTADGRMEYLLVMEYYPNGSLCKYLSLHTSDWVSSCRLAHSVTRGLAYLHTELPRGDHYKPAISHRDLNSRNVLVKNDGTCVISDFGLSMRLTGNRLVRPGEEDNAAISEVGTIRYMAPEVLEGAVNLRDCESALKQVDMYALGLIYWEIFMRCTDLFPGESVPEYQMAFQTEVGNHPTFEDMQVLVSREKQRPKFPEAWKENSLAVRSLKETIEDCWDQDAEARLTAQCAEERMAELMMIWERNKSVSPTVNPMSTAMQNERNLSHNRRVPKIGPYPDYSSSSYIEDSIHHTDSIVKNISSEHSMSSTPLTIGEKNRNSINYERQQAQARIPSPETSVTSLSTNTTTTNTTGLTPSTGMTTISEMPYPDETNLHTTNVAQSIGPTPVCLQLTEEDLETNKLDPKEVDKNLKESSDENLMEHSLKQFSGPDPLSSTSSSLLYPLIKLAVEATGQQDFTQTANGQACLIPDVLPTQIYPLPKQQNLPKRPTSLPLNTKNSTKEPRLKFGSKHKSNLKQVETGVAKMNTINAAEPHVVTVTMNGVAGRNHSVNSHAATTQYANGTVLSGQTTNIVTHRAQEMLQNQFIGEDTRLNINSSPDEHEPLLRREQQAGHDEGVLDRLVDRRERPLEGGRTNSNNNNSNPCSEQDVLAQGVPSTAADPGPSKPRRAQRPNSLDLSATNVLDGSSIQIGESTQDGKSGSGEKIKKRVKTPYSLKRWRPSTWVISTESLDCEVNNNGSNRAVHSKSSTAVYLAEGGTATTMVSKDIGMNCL
T2 sequence (P51813 whole entry): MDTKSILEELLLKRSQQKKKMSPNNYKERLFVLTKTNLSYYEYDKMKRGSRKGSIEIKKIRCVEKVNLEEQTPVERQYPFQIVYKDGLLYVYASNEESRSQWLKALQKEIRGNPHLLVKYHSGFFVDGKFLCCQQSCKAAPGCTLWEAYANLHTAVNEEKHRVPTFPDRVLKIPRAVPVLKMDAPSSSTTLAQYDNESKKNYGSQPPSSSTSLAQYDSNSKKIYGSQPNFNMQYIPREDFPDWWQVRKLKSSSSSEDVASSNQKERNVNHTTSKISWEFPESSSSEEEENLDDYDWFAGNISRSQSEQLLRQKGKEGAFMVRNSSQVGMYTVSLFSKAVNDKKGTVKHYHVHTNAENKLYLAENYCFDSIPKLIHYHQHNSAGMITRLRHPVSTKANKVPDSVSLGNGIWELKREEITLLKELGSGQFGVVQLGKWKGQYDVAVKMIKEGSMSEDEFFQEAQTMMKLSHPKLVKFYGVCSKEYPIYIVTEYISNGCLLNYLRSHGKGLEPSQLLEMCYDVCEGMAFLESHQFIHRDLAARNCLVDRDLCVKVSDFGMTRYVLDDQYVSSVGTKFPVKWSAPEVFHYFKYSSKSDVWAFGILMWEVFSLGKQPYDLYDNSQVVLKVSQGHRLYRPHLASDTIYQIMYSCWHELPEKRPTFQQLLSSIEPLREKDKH
T5 sequence (P37023 22-503): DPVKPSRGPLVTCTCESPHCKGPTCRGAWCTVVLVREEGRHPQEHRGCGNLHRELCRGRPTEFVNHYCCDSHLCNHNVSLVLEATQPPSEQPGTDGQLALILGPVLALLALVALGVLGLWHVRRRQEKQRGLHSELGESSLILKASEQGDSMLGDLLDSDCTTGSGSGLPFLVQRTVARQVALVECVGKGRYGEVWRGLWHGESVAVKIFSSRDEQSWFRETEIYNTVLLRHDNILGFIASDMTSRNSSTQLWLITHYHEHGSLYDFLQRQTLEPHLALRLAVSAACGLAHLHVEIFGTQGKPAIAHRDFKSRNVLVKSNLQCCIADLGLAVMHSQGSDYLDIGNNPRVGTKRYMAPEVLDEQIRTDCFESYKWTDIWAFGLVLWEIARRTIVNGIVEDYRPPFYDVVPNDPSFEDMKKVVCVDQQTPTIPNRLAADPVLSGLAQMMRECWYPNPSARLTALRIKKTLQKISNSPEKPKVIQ
T6 sequence (Q04771 21-509): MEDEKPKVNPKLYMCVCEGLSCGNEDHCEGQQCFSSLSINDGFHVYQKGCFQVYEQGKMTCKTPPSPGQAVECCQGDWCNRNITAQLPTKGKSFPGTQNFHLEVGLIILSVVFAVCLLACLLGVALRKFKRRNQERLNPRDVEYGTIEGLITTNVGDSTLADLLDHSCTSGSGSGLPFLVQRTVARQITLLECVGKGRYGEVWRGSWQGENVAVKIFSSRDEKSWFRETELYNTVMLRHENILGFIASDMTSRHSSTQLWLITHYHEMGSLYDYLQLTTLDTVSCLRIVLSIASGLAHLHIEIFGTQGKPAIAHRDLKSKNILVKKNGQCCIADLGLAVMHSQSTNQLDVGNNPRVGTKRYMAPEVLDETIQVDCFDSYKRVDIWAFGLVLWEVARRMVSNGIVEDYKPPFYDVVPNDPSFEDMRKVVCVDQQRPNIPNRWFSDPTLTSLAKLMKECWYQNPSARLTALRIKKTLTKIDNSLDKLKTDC

COc1cc2ncnc(Nc3cccc(Cl)c3F)c2cc1OCCON1CCN(C)CC1 [Compound 9, N-(3-Chloro-2-fluorophenyl)-7-methoxy-6-(2-((4-methylpiperazin-1-yl)oxy)ethoxy)quinazolin-4-amine]
108.1%: Mean % Control (n = 3) (TA1535; TA1535-S9, 5.0E-06 M)
2: Count (# of wells) (TA98; TA98+S9, 1.0E-05 M) | Count (# of wells) (TA98; TA98-S9, 5.0E-05 M)
101.7%: Mean % Control (n = 3) (TA1537 [1]; TA1537-S9, 6.0E-07 M)
4: Count (# of wells) (TA1537 [2]; TA1537+S9, 5.0E-05 M) | Count (# of wells) (TA100; TA100-S9, 1.0E-05 M)
98.4%: Mean % Control (n = 3) (TA1537 [1]; TA1537-S9, 1.2E-06 M)
98.8%: Mean % Control (n = 3) (TA1537 [1]; TA1537-S9, 5.0E-06 M)
101.2%: Mean % Control (n = 3) (TA1535; TA1535-S9, 2.5E-06 M)
83.8%: Mean % Control (n = 3) (TA1537 [1]; TA1537-S9, 2.5E-05 M)
99%: remaining binding at 1 µM (BMPR2)
5: Count (# of wells) (TA1537 [2]; TA1537+S9, 1.0E-05 M)
97.6%: Mean % Control (n = 3) (TA1535; TA1535-S9, 2.5E-05 M)
-: Flag (TA1535; TA1535-S9, 1.0E-04 M) | Flag (TA1535; TA1535-S9, 1.0E-05 M) | Flag (TA1535; TA1535-S9, 1.2E-06 M) | Flag (TA1535; TA1535-S9, 2.5E-05 M) | Flag (TA1535; TA1535-S9, 2.5E-06 M) | Flag (TA1535; TA1535-S9, 5.0E-05 M) | Flag (TA1535; TA1535-S9, 5.0E-06 M) | Flag (TA1535; TA1535-S9, 6.0E-07 M) | Flag (TA1537 [1]; TA1537-S9, 1.0E-04 M) | Flag (TA1537 [1]; TA1537-S9, 1.0E-05 M) | Flag (TA1537 [1]; TA1537-S9, 1.2E-06 M) | Flag (TA1537 [1]; TA1537-S9, 2.5E-05 M) | Flag (TA1537 [1]; TA1537-S9, 2.5E-06 M) | Flag (TA1537 [1]; TA1537-S9, 5.0E-05 M) | Flag (TA1537 [1]; TA1537-S9, 5.0E-06 M) | Flag (TA1537 [1]; TA1537-S9, 6.0E-07 M) | Positive Significance (- to +++) (TA1537 [2]; TA1537+S9, 1.0E-04 M) | Positive Significance (- to +++) (TA1537 [2]; TA1537+S9, 1.0E-05 M) | Positive Significance (- to +++) (TA1537 [2]; TA1537+S9, 5.0E-05 M) | Positive Significance (- to +++) (TA1537 [2]; TA1537+S9, 5.0E-06 M) | Positive Significance (- to +++) (TA1537 [2]; TA1537-S9, 1.0E-04 M) | Positive Significance (- to +++) (TA1537 [2]; TA1537-S9, 1.0E-05 M) | Positive Significance (- to +++) (TA1537 [2]; TA1537-S9, 5.0E-05 M) | Positive Significance (- to +++) (TA1537 [2]; TA1537-S9, 5.0E-06 M) | Positive Significance (- to +++) (TA98; TA98+S9, 1.0E-04 M) | Positive Significance (- to +++) (TA98; TA98+S9, 1.0E-05 M) | Positive Significance (- to +++) (TA98; TA98+S9, 5.0E-05 M) | Positive Significance (- to +++) (TA98; TA98+S9, 5.0E-06 M) | Positive Significance (- to +++) (TA98; TA98-S9, 1.0E-04 M) | Positive Significance (- to +++) (TA98; TA98-S9, 1.0E-05 M) | Positive Significance (- to +++) (TA98; TA98-S9, 5.0E-05 M) | Positive Significance (- to +++) (TA98; TA98-S9, 5.0E-06 M) | Positive Significance (- to +++) (TA100; TA100+S9, 1.0E-04 M) | Positive Significance (- to +++) (TA100; TA100+S9, 1.0E-05 M) | Positive Significance (- to +++) (TA100; TA100+S9, 5.0E-05 M) | Positive Significance (- to +++) (TA100; TA100+S9, 5.0E-06 M) | Positive Significance (- to +++) (TA100; TA100-S9, 1.0E-04 M) | Positive Significance (- to +++) (TA100; TA100-S9, 1.0E-05 M) | Positive Significance (- to +++) (TA100; TA100-S9, 5.0E-05 M) | Positive Significance (- to +++) (TA100; TA100-S9, 5.0E-06 M)
78.4%: Mean % Control (n = 3) (TA1535; TA1535-S9, 1.0E-04 M)
94%: remaining binding at 1 µM (WNK2)
85.7%: Mean % Control (n = 3) (TA1535; TA1535-S9, 5.0E-05 M)
82%: remaining binding at 1 µM (BRAF(V600E))
60.3%: Mean % Control (n = 3) (TA1537 [1]; TA1537-S9, 1.0E-04 M)
98.9%: Mean % Control (n = 3) (TA1535; TA1535-S9, 6.0E-07 M)
3: Count (# of wells) (TA1537 [2]; TA1537+S9, 5.0E-06 M) | Count (# of wells) (TA100; TA100+S9, 1.0E-05 M) | Count (# of wells) (TA100; TA100+S9, 5.0E-06 M)
1: Count (# of wells) (TA1537 [2]; TA1537+S9, 1.0E-04 M) | Count (# of wells) (TA1537 [2]; TA1537-S9, 5.0E-06 M) | Count (# of wells) (TA98; TA98+S9, 5.0E-05 M) | Count (# of wells) (TA100; TA100-S9, 5.0E-06 M)
99.4%: Mean % Control (n = 3) (TA1535; TA1535-S9, 1.0E-05 M)
88.7%: Mean % Control (n = 3) (TA1537 [1]; TA1537-S9, 1.0E-05 M)
90.5%: Mean % Control (n = 3) (TA1537 [1]; TA1537-S9, 2.5E-06 M)
120.4%: Mean % Control (n = 3) (TA1535; TA1535-S9, 1.2E-06 M)
100%: remaining binding at 1 µM (ACVRL1) | remaining binding at 1 µM (ACVR1)
0: Count (# of wells) (TA1537 [2]; TA1537-S9, 1.0E-04 M) | Count (# of wells) (TA1537 [2]; TA1537-S9, 1.0E-05 M) | Count (# of wells) (TA1537 [2]; TA1537-S9, 5.0E-05 M) | Count (# of wells) (TA98; TA98+S9, 1.0E-04 M) | Count (# of wells) (TA98; TA98+S9, 5.0E-06 M) | Count (# of wells) (TA98; TA98-S9, 1.0E-04 M) | Count (# of wells) (TA98; TA98-S9, 1.0E-05 M) | Count (# of wells) (TA98; TA98-S9, 5.0E-06 M) | Count (# of wells) (TA100; TA100+S9, 1.0E-04 M) | Count (# of wells) (TA100; TA100+S9, 5.0E-05 M) | Count (# of wells) (TA100; TA100-S9, 1.0E-04 M) | Count (# of wells) (TA100; TA100-S9, 5.0E-05 M)
93%: remaining binding at 1 µM (BMX)
71.1%: Mean % Control (n = 3) (TA1537 [1]; TA1537-S9, 5.0E-05 M)
98%: remaining binding at 1 µM (ZAP70)
